Results as given in US10131652B2, “Pyrimidinyloxy benzene derivatives as herbicides” (E. I. DU PONT DE NEMOURS AND COMPANY, priority 2014, dated 2018).
Where two headings read alike, the source gives them in different places.

Columns and labels:
Assay in all cases: Test E pre-/postemergence plant response
Format in all cases: in vivo
[1] = test system: downy bromegrass (Bromus tectorum); settings: pre-emergence, Preemergence, scale 0 to 100, read-out: Plant response rating, Bromegrass, Downy
Outline: (§1)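 Pre-emergence: seeds sown in silt loam soil and sprayed with test chemicals in a non-phytotoxic solvent/surfactant mix. Post-emergence: plants at 2–18 cm (1- to 4-leaf stage) in peat/vermiculite medium treated with the same formulation. Visual rating versus controls after 7–21 days, 0 (no effect) to 100 (complete control).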

[2] = test system: wild mustard (Sinapis arvensis); settings: Brassica, scale 0 to 100, read-out: Plant response rating, Mustard, Wild; for pest or weed control at 16 g/ha: 16 g ai/ha; for pest or weed control at 31 g/ha: 31 g ai/ha; for pest or weed control at 62 g/ha: 62 g ai/ha; for pest or weed control at 125 g/ha: 125 g ai/ha
Outline: as §1

[3] = test system: bluegrass (annual bluegrass, Poa annua); settings: scale 0 to 100, read-out: Plant response rating, Bluegrass; for pest or weed control at 16 g/ha: 16 g ai/ha; for pest or weed control at 31 g/ha: 31 g ai/ha; for pest or weed control at 62 g/ha: 62 g ai/ha; for pest or weed control at 125 g/ha: 125 g ai/ha
Outline: as §1

[4] = test system: oilseed rape (Brassica napus); settings: scale 0 to 100, read-out: Plant response rating, Oilseed Rape; for plant injury at 16 g/ha: 16 g ai/ha; for plant injury at 31 g/ha: 31 g ai/ha; for plant injury at 62 g/ha: 62 g ai/ha; for plant injury at 125 g/ha: 125 g ai/ha
Outline: as §1

[5] = test system: green foxtail (Setaria viridis); settings: scale 0 to 100, read-out: Plant response rating, Foxtail, Green; for pest or weed control at 16 g/ha: 16 g ai/ha; for pest or weed control at 31 g/ha: 31 g ai/ha; for pest or weed control at 62 g/ha: 62 g ai/ha; for pest or weed control at 125 g/ha: 125 g ai/ha
Outline: as §1

[6] = test system: speedwell (bird's-eye speedwell, Veronica persica); settings: scale 0 to 100, read-out: Plant response rating, Speedwell; for pest or weed control at 16 g/ha: 16 g ai/ha; for pest or weed control at 62 g/ha: 62 g ai/ha; for pest or weed control at 125 g/ha: 125 g ai/ha
Outline: as §1

Compound: Fc1cccc(Oc2ncc(Cl)cn2)c1-c1cc(C(F)F)no1 [Compound 144, 5-chloro-2-[2-[3-(difluoromethyl)-5-isoxazolyl]-3-fluorophenoxy]pyrimidine]
- pest or weed control at 16 g/ha ([1]; 16 g ai/ha): 10%
- pest or weed control at 31 g/ha ([1]; 31 g ai/ha): 10%
- pest or weed control at 62 g/ha ([1]; 62 g ai/ha): 35%
- pest or weed control at 125 g/ha ([1]; 125 g ai/ha): 55%
- pest or weed control at 16 g/ha ([2]; post-emergence, Postemergence): 100%
- pest or weed control at 31 g/ha ([2]; post-emergence, Postemergence): 100%
- pest or weed control at 62 g/ha ([2]; post-emergence, Postemergence): 100%
- pest or weed control at 125 g/ha ([2]; post-emergence, Postemergence): 100%
- pest or weed control at 16 g/ha ([2]; pre-emergence, Preemergence): 90%
- pest or weed control at 31 g/ha ([2]; pre-emergence, Preemergence): 100%
- pest or weed control at 62 g/ha ([2]; pre-emergence, Preemergence): 100%
- pest or weed control at 125 g/ha ([2]; pre-emergence, Preemergence): 100%
- pest or weed control at 16 g/ha ([3]; post-emergence, Postemergence): 25%
- pest or weed control at 31 g/ha ([3]; post-emergence, Postemergence): 45%
- pest or weed control at 62 g/ha ([3]; post-emergence, Postemergence): 55%
- pest or weed control at 125 g/ha ([3]; post-emergence, Postemergence): 65%
- pest or weed control at 16 g/ha ([3]; pre-emergence, Preemergence): 10%
- pest or weed control at 31 g/ha ([3]; pre-emergence, Preemergence): 15%
- pest or weed control at 62 g/ha ([3]; pre-emergence, Preemergence): 40%
- pest or weed control at 125 g/ha ([3]; pre-emergence, Preemergence): 85%
- plant injury at 16 g/ha ([4]; post-emergence, Postemergence): 100%
- plant injury at 31 g/ha ([4]; post-emergence, Postemergence): 100%
- plant injury at 62 g/ha ([4]; post-emergence, Postemergence): 100%
- plant injury at 125 g/ha ([4]; post-emergence, Postemergence): 100%
- plant injury at 16 g/ha ([4]; pre-emergence, Preemergence): 35%
- plant injury at 31 g/ha ([4]; pre-emergence, Preemergence): 80%
- plant injury at 62 g/ha ([4]; pre-emergence, Preemergence): 100%
- plant injury at 125 g/ha ([4]; pre-emergence, Preemergence): 100%
- pest or weed control at 16 g/ha ([5]; post-emergence, Postemergence): 40%
- pest or weed control at 31 g/ha ([5]; post-emergence, Postemergence): 50%
- pest or weed control at 62 g/ha ([5]; post-emergence, Postemergence): 80%
- pest or weed control at 125 g/ha ([5]; post-emergence, Postemergence): 100%
- pest or weed control at 16 g/ha ([5]; pre-emergence, Preemergence): 20%
- pest or weed control at 31 g/ha ([5]; pre-emergence, Preemergence): 35%
- pest or weed control at 62 g/ha ([5]; pre-emergence, Preemergence): 95%
- pest or weed control at 125 g/ha ([5]; pre-emergence, Preemergence): 100%
- pest or weed control at 16 g/ha ([6]; post-emergence, Postemergence): 100%
- pest or weed control at 31 g/ha ([6]; post-emergence, 31 g ai/ha, Postemergence): 100%
- pest or weed control at 62 g/ha ([6]; post-emergence, Postemergence): 100%
- pest or weed control at 125 g/ha ([6]; post-emergence, Postemergence): 100%
- pest or weed control at 16 g/ha ([6]; pre-emergence, Preemergence): 100%
- pest or weed control at 62 g/ha ([6]; pre-emergence, Preemergence): 100%
- pest or weed control at 125 g/ha ([6]; pre-emergence, Preemergence): 100%
